Results from patent publication US20240374612A1, “IMIDAZOBENZO[…] TREATMENT OF COGNITIVE AND MOOD SYMPTOMS” (UWM Research Foundation, Inc., priority 2021, published 2024).

Experiments:
[1] = test system: C57/Bl6 mice subjected to chronic restraint stress (working memory deficit); test: Y-maze alternation task after chronic restraint stress (CRS); format: in vivo; conditions: 10 mg/kg i.p., acute, 30 min before testing, vs CRS vehicle
Description: Young Animals and chronic stress procedure: C57/Bl6 mice, males and females at 8 weeks old and are kept in normal housing conditions (12 h light ON cycle starting at 7 am/water and food ad libitum) for one week. During this week, animals are single housed and handled to reduce the anxiety-like response toward the experimenter. To induce a working memory deficit, mice are subjected to a chronic restraint stress protocol (CRS). They are placed in a 50 mL Falcon® tube, twice a day, for 1 hour during their diurnal cycle. The time of occurrence of the stress is randomized every day to avoid predictability. CRS is not applied on testing days. Y-maze test occurs 15 hours minimum after the last stressor.
Protocol: Mice are first habituated to the Y-maze apparatus and distal cues during 2 consecutive days over a 10 min free exploration session (one session per day). The next day, animals perform a training session consisting in seven successive trials separated by a 30 s inter-trial interval (ITI); during this training session, mice are familiarized with the experimental procedure (opening and closing of the doors and confinement into the goal arms). For each trial, mice remain in the start-box for a 30 s ITI. Then, the door is opened and the mouse is allowed to enter freely one of the two goal arms; the chosen arm is closed and the choice is recorded. After a 30 s confinement period into the chosen arm, the mouse is removed and brought back to the start-box for a second trial identical to the first one and this procedure is repeated over the series of trials.
The same general procedure used in the training session is implemented 24 h later, except that the ITI was lengthened to 90 s. For this experiment, animals are acutely injected i.p. with vehicle or drug, 30 minutes before the beginning of the test. To dissociate memory deficits from an eventual progressive loss of motivation to alternate over the series, an 8th trial is added to the series which is separated from the 7th trial by a shorter ITI (5 s). All animals failing to alternate at the 8th trial are excluded. The mean alternation rate is calculated and is expressed in percentage (number of alternation done by the animal/total number of alternation possible×100)±SEM. The percentage of alternation during the entire task is considered as an index of working memory performance (50% of being a random alternation rate). Factorial ANOVA is applied to the data to reveal differences between groups. If the ANOVA is significant for group effect (p<0.05), Scheffe post-hoc analysis are conducted to identify which groups are different from each other.
Drug preparation and administration: All drugs are diluted in a vehicle solution containing 85% H2O, 14% propylene glycol (Sigma Aldrich) and 1% Tween 80 (Sigma Aldrich). Working solutions are prepared at a concentration of 10 mg/mL and administered i.p. adjusted to the body weight of each animal. Doses used are either 1, 5, 10 or 20 mg/kg. For all Y maze experiments, animals are acutely injected i.p. with vehicle or drug, 30 minutes before the beginning of the test.

α1β3γ2 GABAA receptor = target: T1, α1β3γ2 GABAA receptor (Homo sapiens, UniProt P14867+P18507); test: Electrophysiology in transfected cells (IonWorks Barracuda), PAM effect on current induced by 5 μM GABA; format: cell-based
T1 construct: Full-length cDNAs for GABAA receptor subtypes are transfected into the human embryonic kidney cell line HEK-293T; expressed in transfected cells; host or cells: human mammalian cells (HEK-293T per Procedure B)
Description: (§1) Procedure B: Full-length cDNAs for GABAA receptor subtypes are transfected into the human embryonic kidney cell line HEK-293T. All subtypes are rat clones except for α2, which is a human clone. Cells are patch-clamped at −50 mV in the whole-cell recording configuration. GABA is diluted into the bath and compounds are dissolved in DMSO and diluted into bath solution. Solutions containing GABA or GABA+ compounds are applied to cells for 5 s. Currents are recorded with an Axon 200B patch clamp amplifier. Data is normalized data current expressed as a percentage of the response to GABA alone for each cell.
(§2) Electrophysiological Characterization of GL-III-68 by Procedure B: Human mammalian cells are transfected with human […] GABAA receptors. Cells are incubated with GL-III-68 at a range of concentrations from 0.03 μM to 100 μM. Currents are induced by stimulation with 5 μM GABA and recorded using the IonWorks Barracuda® test platform. Current is normalized to the current induced by 5 μM of GABA in the absence of any allosteric modulator. PAM effect of at different subtypes of GABA^A receptor. % of current was calculated relatively to current produced by 5 μM GABA alone (set to 100%) (FIG. 21). EC50 results are shown below.

α2β3γ2 GABAA receptor = target: T2, α2β3γ2 GABAA receptor (Homo sapiens, UniProt P18507+P47869); test: as above; format: cell-based
T2 construct: Full-length cDNAs for GABAA receptor subtypes are transfected into the human embryonic kidney cell line HEK-293T; expressed in transfected cells; host or cells: human mammalian cells (HEK-293T per Procedure B)
Description: as §1, §2

α3β3γ2 GABAA receptor = target: T3, α3β3γ2 GABAA receptor (Homo sapiens, UniProt P18507+P34903); test: as above; format: cell-based
T3 construct: Full-length cDNAs for GABAA receptor subtypes are transfected into the human embryonic kidney cell line HEK-293T; expressed in transfected cells; host or cells: human mammalian cells (HEK-293T per Procedure B)
Description: as §1, §2

α5β3γ2 GABAA receptor = target: T4, α5β3γ2 GABAA receptor (Homo sapiens, UniProt P18507+P31644); test: as above; format: cell-based
T4 construct: Full-length cDNAs for GABAA receptor subtypes are transfected into the human embryonic kidney cell line HEK-293T; expressed in transfected cells; host or cells: human mammalian cells (HEK-293T per Procedure B)
Description: as §1, §2

T4 sequence (P31644 32-462): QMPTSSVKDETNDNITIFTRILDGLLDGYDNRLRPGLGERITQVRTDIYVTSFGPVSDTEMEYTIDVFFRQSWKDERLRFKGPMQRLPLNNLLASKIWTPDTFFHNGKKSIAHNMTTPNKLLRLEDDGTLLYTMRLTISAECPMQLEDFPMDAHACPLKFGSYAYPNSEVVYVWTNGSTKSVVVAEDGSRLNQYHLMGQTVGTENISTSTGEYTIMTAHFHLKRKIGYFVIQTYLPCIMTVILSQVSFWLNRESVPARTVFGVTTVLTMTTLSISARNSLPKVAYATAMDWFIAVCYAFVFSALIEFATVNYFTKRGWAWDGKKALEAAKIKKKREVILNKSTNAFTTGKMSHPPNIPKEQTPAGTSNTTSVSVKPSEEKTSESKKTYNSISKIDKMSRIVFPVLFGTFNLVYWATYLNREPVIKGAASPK
T4 sequence (P28472 26-473 partner): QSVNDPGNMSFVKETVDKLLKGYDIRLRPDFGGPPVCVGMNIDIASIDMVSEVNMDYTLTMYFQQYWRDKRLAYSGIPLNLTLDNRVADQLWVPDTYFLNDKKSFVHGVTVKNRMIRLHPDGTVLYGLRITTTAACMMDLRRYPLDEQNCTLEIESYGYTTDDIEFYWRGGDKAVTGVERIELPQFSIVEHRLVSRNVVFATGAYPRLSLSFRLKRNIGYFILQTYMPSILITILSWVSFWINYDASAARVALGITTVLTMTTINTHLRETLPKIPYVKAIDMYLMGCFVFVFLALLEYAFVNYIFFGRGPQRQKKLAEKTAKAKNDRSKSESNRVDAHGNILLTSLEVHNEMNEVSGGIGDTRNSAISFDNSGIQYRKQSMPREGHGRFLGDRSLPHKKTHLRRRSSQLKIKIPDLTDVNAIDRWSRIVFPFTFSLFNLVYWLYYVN
T4 sequence (P18507 40-475): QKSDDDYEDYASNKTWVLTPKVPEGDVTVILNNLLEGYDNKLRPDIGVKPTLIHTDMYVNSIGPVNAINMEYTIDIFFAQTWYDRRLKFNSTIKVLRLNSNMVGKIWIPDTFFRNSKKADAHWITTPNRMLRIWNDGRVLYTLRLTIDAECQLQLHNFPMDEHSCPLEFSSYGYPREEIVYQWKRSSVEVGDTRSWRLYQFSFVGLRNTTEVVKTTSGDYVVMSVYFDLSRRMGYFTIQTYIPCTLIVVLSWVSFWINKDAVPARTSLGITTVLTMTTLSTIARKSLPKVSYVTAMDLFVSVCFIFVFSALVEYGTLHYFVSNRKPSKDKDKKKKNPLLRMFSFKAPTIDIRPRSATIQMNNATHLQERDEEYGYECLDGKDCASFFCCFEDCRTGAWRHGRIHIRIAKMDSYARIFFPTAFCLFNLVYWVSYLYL
T1 sequence (P14867 28-456): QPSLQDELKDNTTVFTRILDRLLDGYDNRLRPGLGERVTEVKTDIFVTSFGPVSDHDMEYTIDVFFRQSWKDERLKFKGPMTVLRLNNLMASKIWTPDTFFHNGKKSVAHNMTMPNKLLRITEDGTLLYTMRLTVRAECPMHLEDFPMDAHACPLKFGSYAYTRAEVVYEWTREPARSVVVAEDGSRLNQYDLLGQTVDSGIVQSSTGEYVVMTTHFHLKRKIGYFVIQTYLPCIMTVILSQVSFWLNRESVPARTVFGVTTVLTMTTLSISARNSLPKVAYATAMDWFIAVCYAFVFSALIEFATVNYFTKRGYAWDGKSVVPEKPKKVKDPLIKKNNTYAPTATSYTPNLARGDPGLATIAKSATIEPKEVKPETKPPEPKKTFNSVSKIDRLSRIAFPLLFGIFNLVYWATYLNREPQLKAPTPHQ
T1 sequence (P28472 26-473 partner): as the sequence (P28472 26-473 partner) above
T1 sequence (P18507 40-475): as the sequence (P18507 40-475) above
T2 sequence (P47869 29-451): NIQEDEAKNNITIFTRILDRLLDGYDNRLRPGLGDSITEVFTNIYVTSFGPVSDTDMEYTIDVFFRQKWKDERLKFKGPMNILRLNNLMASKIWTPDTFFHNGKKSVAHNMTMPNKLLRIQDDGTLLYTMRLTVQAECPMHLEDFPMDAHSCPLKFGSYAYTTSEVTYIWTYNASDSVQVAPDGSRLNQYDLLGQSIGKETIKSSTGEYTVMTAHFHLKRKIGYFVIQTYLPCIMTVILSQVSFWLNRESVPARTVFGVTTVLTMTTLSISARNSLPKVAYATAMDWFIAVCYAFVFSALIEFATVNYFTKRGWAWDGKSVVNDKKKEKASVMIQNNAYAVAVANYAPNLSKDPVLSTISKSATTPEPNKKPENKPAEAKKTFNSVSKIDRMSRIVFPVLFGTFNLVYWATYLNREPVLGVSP
T2 sequence (P28472 26-473 partner): as the sequence (P28472 26-473 partner) above
T2 sequence (P18507 40-475): as the sequence (P18507 40-475) above
T3 sequence (P34903 29-492): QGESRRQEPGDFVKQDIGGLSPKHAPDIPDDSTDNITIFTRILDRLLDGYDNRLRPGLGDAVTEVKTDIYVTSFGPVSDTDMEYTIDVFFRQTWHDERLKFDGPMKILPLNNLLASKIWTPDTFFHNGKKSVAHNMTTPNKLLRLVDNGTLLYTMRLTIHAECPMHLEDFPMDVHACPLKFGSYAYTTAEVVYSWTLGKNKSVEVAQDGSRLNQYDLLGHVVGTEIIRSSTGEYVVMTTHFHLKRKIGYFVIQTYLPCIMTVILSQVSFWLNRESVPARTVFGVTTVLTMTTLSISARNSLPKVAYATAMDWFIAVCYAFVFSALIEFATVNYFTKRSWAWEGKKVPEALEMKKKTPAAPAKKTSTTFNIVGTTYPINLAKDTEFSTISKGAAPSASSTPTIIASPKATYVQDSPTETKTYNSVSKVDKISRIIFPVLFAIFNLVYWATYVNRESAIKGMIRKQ
T3 sequence (P28472 26-473 partner): as the sequence (P28472 26-473 partner) above
T3 sequence (P18507 40-475): as the sequence (P18507 40-475) above

CCNC(=O)c1ncn2c1[C@@H](C)N=C(c1ccccc1F)c1cc(C3CC3)ccc1-2 [GL-III-68, (R)-8-Cyclopropyl-N-ethyl-6-(2-fluorophenyl)-4-methyl-4H-benzo[f]imidazo[1,5-a][1,4]diazepine-3-carboxamide]
reversal of CRS-induced reduction of alternation rate (Y-maze) [1]: reversed
EC50 (α1β3γ2 GABAA receptor): 10.7 µM
Emax (α1β3γ2 GABAA receptor; α1β3γ2, % of current produced by 5 μM GABA alone (set to 100%)): 188%
EC50 (α2β3γ2 GABAA receptor): 1.91 µM
Emax (α2β3γ2 GABAA receptor; α2β3γ2, % of current produced by 5 μM GABA alone (set to 100%)): 224%
EC50 (α3β3γ2 GABAA receptor): 3.52 µM
Emax (α3β3γ2 GABAA receptor; α3β3γ2, % of current produced by 5 μM GABA alone (set to 100%)): 209%
EC50 (α5β3γ2 GABAA receptor): < 0.03 µM
Emax (α5β3γ2 GABAA receptor; α5β3γ2, % of current produced by 5 μM GABA alone (set to 100%)): 188%
